Test results taken from publication PMC5654414, “In vitro and in vivo comparative and competitive activity-based protein profiling of GH29 α-L-fucosidases” (Chemical Science, 2015).

How the values were obtained:
[1] = tested on: retaining α-L-fucosidases; assay: In vivo labeling of α-L-fucosidases in mice; parameters: species or system C57Bl/6J mice
Method: (§1) The ability of 1 to label α-L-fucosidase in living mice was investigated next. Four wild-type C57Bl/6J male mice were injected with 100 μL vehicle (PBS) or PBS containing 10, 100 or 1000 pmol 1. After two hours, the mice were anesthetized, perfused with PBS and then brain, spleen, liver and kidney tissues were isolated. Tissue homogenates were prepared and each lysate was labeled prior to gel electrophoresis with red-fluorescent cyclophellitol β-aziridine JJB75, which labels β-exoglucosidases as loading control (ESI Fig. S6 ^†). Furthermore, tissue homogenates of vehicle-treated animals were labeled with excess 1 to visualize the maximal α-L-fucosidase labeling achievable in each tissue.
(§2) The appropriate ethics committee for animal experiments approved all experimental procedures. Wild-type C57Bl/6J male mice were obtained from Harlan and fed a commercially available lab diet (RMH-B; Hope Farms). Four C57BL/6J mice were injected intraperitoneally with 100 μL sterile PBS (vehicle) or PBS containing 10, 100, or 1000 pmol of ABP 1 (about 0.2 μg kg^–1, 2 μg kg^–1, and 20 μg kg^–1, respectively). At 2 h post-administration, urine was collected and the mice were anesthetized with FFM mix (25/25/50 fentanylcitrate/midazalam/H2O), blood was collected and perfused with PBS at 3.0 mL min^–1. Then urine and organs were collected and directly frozen in liquid nitrogen. Homogenates were made in 25 mM potassium phosphate buffer, pH 6.5, supplemented with 0.1% (v/v) Triton X-100 and protease inhibitor cocktail (Roche). After determination of protein concentration (BCA kit, Pierce), 50 μg total protein was incubated with 100 nM red fluorescent JJB75 and analyzed by SDS-PAGE. As controls, matching tissue homogenates of vehicle-treated animals were concomitantly labeled with 1 μM ABP 1 and 100 nM JJB75 prior to SDS-PAGE.

[2] = biological target: T1, retaining α-L-fucosidases (Mus musculus, UniProt Q99LJ1); assay: In vivo labeling of α-L-fucosidases in mice; parameters: species or system C57Bl/6J mice; details: any of the administered doses (10, 100, 1000 pmol), 2 h
T1 construct: from tissue; host or cells: C57Bl/6J mouse spleen, liver, kidney, brain (in vivo)
T1 sequence (Q99LJ1 18-452): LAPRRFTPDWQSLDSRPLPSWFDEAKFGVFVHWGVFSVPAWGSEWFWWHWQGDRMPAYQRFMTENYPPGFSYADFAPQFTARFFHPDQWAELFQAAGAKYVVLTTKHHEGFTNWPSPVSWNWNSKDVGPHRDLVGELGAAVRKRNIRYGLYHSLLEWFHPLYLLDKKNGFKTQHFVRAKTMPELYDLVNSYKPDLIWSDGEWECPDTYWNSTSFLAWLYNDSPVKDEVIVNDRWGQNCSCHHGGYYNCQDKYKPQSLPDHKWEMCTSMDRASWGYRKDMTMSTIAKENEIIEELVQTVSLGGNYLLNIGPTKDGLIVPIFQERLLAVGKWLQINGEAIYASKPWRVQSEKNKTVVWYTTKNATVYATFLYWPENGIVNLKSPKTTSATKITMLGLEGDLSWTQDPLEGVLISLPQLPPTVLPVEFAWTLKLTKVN
Method: as §1, §2

FUCA1 = biological target: T2, FUCA1 (Homo sapiens, UniProt P04066); assay: Fluorescent labeling kinetics, time course on SDS-PAGE; format: binding; parameters: expressed in transfected cells; host or cells: COS-7; details: 10 nM probe, stoichiometric rhFUCA1, 4 °C
T2 sequence (P04066 32-466): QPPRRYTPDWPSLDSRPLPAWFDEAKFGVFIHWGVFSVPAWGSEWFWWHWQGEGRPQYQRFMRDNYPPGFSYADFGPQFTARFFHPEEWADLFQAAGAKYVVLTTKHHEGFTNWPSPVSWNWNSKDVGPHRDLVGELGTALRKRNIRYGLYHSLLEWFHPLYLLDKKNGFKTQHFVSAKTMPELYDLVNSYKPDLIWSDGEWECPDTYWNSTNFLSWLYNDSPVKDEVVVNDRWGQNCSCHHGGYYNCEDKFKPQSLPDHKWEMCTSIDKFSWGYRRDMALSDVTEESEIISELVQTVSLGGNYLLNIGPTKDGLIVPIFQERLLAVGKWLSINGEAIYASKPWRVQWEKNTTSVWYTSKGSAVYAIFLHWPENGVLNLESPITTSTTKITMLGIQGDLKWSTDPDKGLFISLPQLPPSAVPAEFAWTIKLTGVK
Description: This rapid reaction with both 1 and 2 also precluded a classic determination of kinetic constants following a time-dependent decrease in detectable 4-methylumbelliferone (ESI Fig. S5b ^†).
Fig. S4. In vitro pH profile of recombinant FUCA1. A) In vitro labeling of COS-7 cell lysate containing over-expressed human FUCA1 at various pH with ABP 1. B) Relative in vitro labeling of FUCA1 with ABP 1 (closed squares) compared to relative enzymatic activity towards artificial 4-methylumbelliferyl-α-L-fucopyranoside substrate (open circles) at various pH. Data average of n = 3 experiments, ± standard deviation.
Fig. S5. In vitro inhibition kinetics of ABPs 1 and 2 towards recombinant human FUCA1. A) Stoichiometric in situ labeling of COS-7 lysate containing over-expressed human FUCA1 with 10 nM ABP 1 at 4°C and 37°C. B) Plots of Kobserved against the concentration of ABP 1 and 2. Rates determined through direct kinetic measurements of liberated 4-methylumbelliferone from 4-methylumbelliferyl-α-L-fucopyranoside substrate whilst in the presence of varying concentrations of ABP 1 and 2. […]

SMILES: CC1=CC(C)=[N+]2C1=C(CCCCc1cn(CCCCCCCC(=O)N3[C@@H]4[C@@H](C)[C@@H](O)[C@@H](O)[C@H](O)[C@@H]43)nn1)c1c(C)cc(C)n1[B-]2(F)F [compound 1]
- brain penetration ([1]; concluded from absent brain labeling): does not penetrate the brain
- in vivo labeling of α-fucosidase in spleen, liver and kidney ([1]; injection of 1000 pmol, 2 h): substantial labeling
- in vivo labeling of retaining α-L-fucosidases in spleen, liver and kidney ([1]; intraperitoneal, 10, 100 or 1000 pmol, 2 h): dose-dependent labeling
- in vivo brain FUCA1 labeling [2]: no in vivo brain FUCA1 labeling was observed
- completeness of labeling over time (FUCA1): near complete within the first minute
